Columns and labels:
[1] = Chemical stability in pH 5.7 buffer at room temperature after 1 week; assay type: physicochemical; conditions: read-out: Stability
[2] = Chemical stability in pH 5.7 buffer at room temperature after 4 weeks; assay type: physicochemical; conditions: read-out: Stability
[3] = Chemical stability in pH 5.7 buffer at room temperature after 1 day; assay type: physicochemical; conditions: for remaining at 24 h: pH 5.7 buffer, pH 5.7, read-out: Stability
[4] = Stability in rabbit corneal homogenate at 37 degC assessed as half life of timolol release; assay type: ADME, tissue-based, Oryctolagus cuniculus, Cornea; conditions: in vitro
[5] = Chemical stability in pH 5.7 buffer at room temperature after 8 weeks; assay type: physicochemical; conditions: read-out: Stability
[6] = Chemical stability in pH 5.7 buffer at room temperature after 12 weeks; assay type: physicochemical; conditions: read-out: Stability
[7] = Vasodilation activity in rabbit aortic rings assessed as relaxation of 3 uM methoxamine-induced contraction in absence of guanylate cyclase inhibitor 1H-[1,2,4]oxadiazolo[4,3-a]quinoxalin-1-one; assay type: functional, tissue-based; conditions: Oryctolagus cuniculus, Aorta
[8] = Vasodilation activity in rabbit aortic rings assessed as relaxation of 3 uM methoxamine-induced contraction in presence of 10 uM guanylate cyclase inhibitor 1H-[1,2,4]oxadiazolo[4,3-a]quinoxalin-1-one; assay type: functional, tissue-based; conditions: Oryctolagus cuniculus, Aorta

| remaining at 168 h [1] [%] | remaining at 672 h [2] [%] | remaining at 24 h [3] [%] | t1/2 [4] [h] | Stability ([3]; buffer, pH 5.7, 24 h) | remaining at 1344 h [5] [%] | remaining at 2016 h [6] [%] | EC50 [7] [µM] | EC50 [8] [µM] | SMILES |
| --- | --- | --- | --- | --- | --- | --- | --- | --- | --- |
| 96.3 | 84.4 | 98.6 | – | – | – | – | – | – | COc1cc(OCCO[N+](=O)[O-])ccc1C(=O)O[C@@H](CNC(C)(C)C)COc1nsnc1N1CCOCC1 |
| – | – | – | 4.62 | Unstable | – | – | – | – | COc1ccc(CO[N+](=O)[O-])cc1C(=O)O[C@@H](CNC(C)(C)C)COc1nsnc1N1CCOCC1.O=C(O)/C=C\C(=O)O |
| 82.5 | – | 96.5 | 4.3 | – | – | – | – | – | CC(C)(C)NC[C@@H](COc1nsnc1N1CCOCC1)OC(=O)c1ccccc1OCCO[N+](=O)[O-].O=C(O)/C=C\C(=O)O |
| 99.3 | 98.3 | 99.8 | > 23.33 | – | 98.3 | 98.3 | – | – | COc1cccc(OCCO[N+](=O)[O-])c1C(=O)O[C@@H](CNC(C)(C)C)COc1nsnc1N1CCOCC1.O=C(O)/C=C\C(=O)O |
| 94.9 | – | 96.7 | – | – | – | – | – | – | COc1cc(COCCO[N+](=O)[O-])ccc1C(=O)O[C@@H](CNC(C)(C)C)COc1nsnc1N1CCOCC1 |
| 100 | 98 | 100 | > 23.33 | – | 96.8 | 93.2 | – | – | COc1cc(COC(=O)CCCCCO[N+](=O)[O-])cc(OC)c1C(=O)O[C@@H](CNC(C)(C)C)COc1nsnc1N1CCOCC1.O=C(O)/C=C\C(=O)O |
| 93 | – | 98.8 | 0.167 | – | – | – | 15.5 | 32.7 | COc1cc(COC(=O)COCCOCCO[N+](=O)[O-])c(C(=O)O[C@@H](CNC(C)(C)C)COc2nsnc2N2CCOCC2)c(OC)c1.O=C(O)/C=C\C(=O)O |
| 72.1 | – | 96 | > 23.33 | – | – | – | – | – | COc1cccc(C(=O)O[C@@H](CNC(C)(C)C)COc2nsnc2N2CCOCC2)c1OCCO[N+](=O)[O-].O=C(O)/C=C\C(=O)O |
| 96.5 | 90.6 | 96.5 | 0.2 | – | – | – | – | – | COc1cc(COC(=O)CCCO[N+](=O)[O-])c(C(=O)O[C@@H](CNC(C)(C)C)COc2nsnc2N2CCOCC2)c(OC)c1.O=C(O)/C=C\C(=O)O |
| 99.1 | 94.7 | 98.4 | 2 | – | 94.9 | 93.2 | – | – | COc1cc(COC(=O)C(C)(C)CO[N+](=O)[O-])c(C(=O)O[C@@H](CNC(C)(C)C)COc2nsnc2N2CCOCC2)c(OC)c1.O=C(O)/C=C\C(=O)O |
| 96.7 | 95.8 | 97.3 | 0.667 | – | 91.7 | 86 | – | – | COc1cc(COC(=O)CCOCC(CO[N+](=O)[O-])O[N+](=O)[O-])c(C(=O)O[C@@H](CNC(C)(C)C)COc2nsnc2N2CCOCC2)c(OC)c1.O=C(O)/C=C\C(=O)O (some centres not stated) |
| 101 | 100 | 101 | > 23.33 | – | 99.6 | 98.5 | – | – | COc1cc(OCCO[N+](=O)[O-])cc(C)c1C(=O)O[C@@H](CNC(C)(C)C)COc1nsnc1N1CCOCC1.O=C(O)/C=C\C(=O)O |
| 84.2 | – | 97.9 | – | – | – | – | – | – | CC(C)(C)NC[C@@H](COc1nsnc1N1CCOCC1)OC(=O)c1ccc(OCCO[N+](=O)[O-])cc1OCCO[N+](=O)[O-] |
| 99.6 | 97.7 | 99.6 | 0.167 | – | 92.8 | – | 6.7 | 56.3 | COc1cc(COC(=O)CCCCCO[N+](=O)[O-])c(C(=O)O[C@@H](CNC(C)(C)C)COc2nsnc2N2CCOCC2)c(OC)c1.O=C(O)/C=C\C(=O)O |
| 74.8 | – | 96 | – | – | – | – | – | – | CC(C)(C)NC[C@@H](COc1nsnc1N1CCOCC1)OC(=O)c1ccccc1 |
| – | – | – | – | – | – | – | 28.8 | 36.5 | CC(C)(C)NC[C@H](O)COc1nsnc1N1CCOCC1 [TIMOLOL] |

| SMILES | remaining at 168 h [1] [%] | remaining at 672 h [2] [%] | remaining at 24 h [3] [%] | t1/2 [4] [h] | Stability ([3]; buffer, pH 5.7, 24 h) | remaining at 1344 h [5] [%] | remaining at 2016 h [6] [%] | EC50 [7] [µM] | EC50 [8] [µM] |
| --- | --- | --- | --- | --- | --- | --- | --- | --- | --- |
| O=[N+]([O-])O[C@@H]1CO[C@H]2[C@@H]1OC[C@@H]2O [ISOSORBIDE MONONITRATE] | – | – | – | – | – | – | – | 9.6 | > 100 |

— ChEMBL document CHEMBL1151861, “Synthesis of novel nitric oxide (NO)-releasing esters of timolol” (Bioorg Med Chem Lett, 2009)
